In US20150336943A1, “NOVEL BENZODIOXANE-PIPERIDINE DERIVATIVES AND THEIR THERAPEUTIC APPLICATIONS FOR TREATING NEUROPSYCHIATRIC DISORDERS” (PIERRE FABRE MEDICAMENT, priority 2013, published 2015):

How the values were obtained:
[1] = target: T1, dopaminergic receptor D2 (Homo sapiens, UniProt P14416); test: Inhibition constants (Ki) for dopaminergic receptor D2 in recombinant cells; format: binding; settings: read-out: pKi D2 (converted)
T1 construct: expressed in transfected cells; host or cells: recombinant human cells (so in the source)
Method: (§1) Compounds of formula 1 have been evaluated in vitro as ligands for dopaminergic and noradrenergic receptors and modulators of the activity of these receptors according to the invention in recombinant human cells expressing the receptors. The inhibition constants (Ki) were measured for dopaminergic receptors D2 and D3, and for adrenergic receptors alpha2A, alpha2B and alpha2C, according to the described methods (Newman-Tancredi A, Assie M B, Martel J C, Cosi C, Slot L B, Palmier C, Rauly-Lestienne I, Colpaert F, Vacher B, Cussac D. F15063, a potential antipsychotic with D2/D3 antagonist, 5-HT 1A agonist and D4 partial agonist properties. I. In vitro receptor affinity and efficacy profile. Br J Pharmacol., 2007, 151:237-252). The intrinsic activity of the products for the D2 receptor was measured (Bruins Slot L A, De Vries L, Newman-Tancredi A, Cussac D. Differential profile of antipsychotics at serotonin 5-HT1A and dopamine D2S receptors coupled to extracellular signal-regulated kinase. Eur J Pharmacol, 2006, 534; 63-70. The results obtained for some of these compounds are presented in the following table.

[2] = target: T2, dopaminergic receptor D3 (Homo sapiens, UniProt P35462); test: Inhibition constants (Ki) for dopaminergic receptor D3 in recombinant cells; format: binding; settings: read-out: pKi D3 (converted)
T2 construct: expressed in transfected cells; host or cells: recombinant human cells (so in the source)
Method: as §1

[3] = target: T3, adrenergic receptor alpha2A (Homo sapiens, UniProt P08913); test: Inhibition constants (Ki) for adrenergic receptor alpha2A in recombinant cells; format: binding; settings: read-out: pKi α2A (converted)
T3 construct: expressed in transfected cells; host or cells: recombinant human cells (so in the source)
T3 sequence (P08913 1-465): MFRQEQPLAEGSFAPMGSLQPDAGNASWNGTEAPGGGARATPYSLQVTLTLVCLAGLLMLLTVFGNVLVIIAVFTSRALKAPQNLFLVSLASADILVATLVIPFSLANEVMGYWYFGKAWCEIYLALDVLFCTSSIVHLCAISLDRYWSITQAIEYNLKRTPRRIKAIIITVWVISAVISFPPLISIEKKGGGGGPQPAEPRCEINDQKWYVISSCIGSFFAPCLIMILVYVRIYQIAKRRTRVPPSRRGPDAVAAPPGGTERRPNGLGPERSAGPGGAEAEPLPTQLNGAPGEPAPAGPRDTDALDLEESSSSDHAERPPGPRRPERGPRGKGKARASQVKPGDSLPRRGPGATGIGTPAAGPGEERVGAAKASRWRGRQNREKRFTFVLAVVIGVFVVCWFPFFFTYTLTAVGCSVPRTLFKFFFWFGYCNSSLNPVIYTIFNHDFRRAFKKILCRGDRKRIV
Method: as §1

[4] = target: T4, adrenergic receptor alpha2B (Homo sapiens, UniProt P18089); test: Inhibition constants (Ki) for adrenergic receptor alpha2B in recombinant cells; format: binding; settings: read-out: pKi α2B (converted)
T4 construct: expressed in transfected cells; host or cells: recombinant human cells (so in the source)
T4 sequence (P18089 1-450): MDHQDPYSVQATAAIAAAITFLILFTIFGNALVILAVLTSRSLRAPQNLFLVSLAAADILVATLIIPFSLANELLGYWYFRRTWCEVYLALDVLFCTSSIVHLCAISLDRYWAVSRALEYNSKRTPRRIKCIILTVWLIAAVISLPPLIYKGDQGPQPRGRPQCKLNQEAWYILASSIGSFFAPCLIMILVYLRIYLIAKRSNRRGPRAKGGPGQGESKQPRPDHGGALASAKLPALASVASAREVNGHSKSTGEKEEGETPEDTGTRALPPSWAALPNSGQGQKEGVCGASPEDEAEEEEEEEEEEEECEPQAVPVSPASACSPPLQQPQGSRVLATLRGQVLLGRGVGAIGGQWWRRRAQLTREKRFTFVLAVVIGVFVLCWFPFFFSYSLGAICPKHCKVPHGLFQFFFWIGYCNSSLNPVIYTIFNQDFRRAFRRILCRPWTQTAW
Method: as §1

[5] = target: T5, adrenergic receptor alpha2C (Homo sapiens, UniProt P18825); test: Inhibition constants (Ki) for adrenergic receptor alpha2C in recombinant cells; format: binding; settings: read-out: pKi α2C (converted)
T5 construct: expressed in transfected cells; host or cells: recombinant human cells (so in the source)
T5 sequence (P18825 1-462): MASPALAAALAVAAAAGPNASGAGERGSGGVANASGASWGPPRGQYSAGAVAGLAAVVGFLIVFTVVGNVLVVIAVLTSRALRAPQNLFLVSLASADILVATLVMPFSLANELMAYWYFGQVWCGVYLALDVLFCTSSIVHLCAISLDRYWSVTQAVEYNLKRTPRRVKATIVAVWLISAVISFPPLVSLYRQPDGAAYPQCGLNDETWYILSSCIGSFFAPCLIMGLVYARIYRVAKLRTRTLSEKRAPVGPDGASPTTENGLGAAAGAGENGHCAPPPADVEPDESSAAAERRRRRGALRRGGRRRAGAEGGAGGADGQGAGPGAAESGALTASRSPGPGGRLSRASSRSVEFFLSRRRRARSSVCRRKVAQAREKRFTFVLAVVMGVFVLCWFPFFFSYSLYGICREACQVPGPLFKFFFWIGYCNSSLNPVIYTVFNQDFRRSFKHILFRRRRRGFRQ
Method: as §1

[6] = target: T6, D2 receptor (Homo sapiens, UniProt P14416); test: Intrinsic (agonist) activity at the D2 receptor; format: cell-based
T6 construct: expressed in transfected cells; host or cells: recombinant human cells (so in the source)
Method: The prior art mentions, for benzodioxane-piperidine derivatives bearing an amide, a urea or an imidazolidinone, as non-selective alpha2-antagonists (WO 97/28157, WO 98/02435); some of these products also have a weak affinity for the D2 dopaminergic receptor (T. Imbert, J. Med. Chem, 2000, 43: 3653-3664). […] Activity as a D2 and D3 receptor agonist was determined according to the described methods (Bruins Slot L A, De Vries L, Newman-Tancredi A, Cussac D. Differential profile of antipsychotics at serotonin 5-HT1A and dopamine D2S receptors coupled to extracellular signal-regulated kinase. Eur J Pharmacol, 2006, 534; 63-70; Bruins Slot L A, Palmier C, Tardif S, Cussac D. Action of novel antipsychotics at human dopamine D3 receptors coupled to G protein and ERK1/2 activation. Neuropharmacology, 2007, 53: 232-241) for the following compounds, such as described in WO 97/28157 and WO 98/02435; • 1-benzyl-3-(2-(1-((2,3-dihydrobenzo[b][1,4]dioxin-2-yl)methyl)piperidin-4-yl)ethyl)imidazolidin-2-one • 1-(2-(1-((2,3-dihydrobenzo[b][1,4]dioxin-2-yl)methyl)piperidin-4-yl)ethyl)-3-methylimidazolidin-2-one • 1-(2,6-dichlorophenyl)-3-(2-(1-((2,3-dihydrobenzo[b][1,4]dioxin-2-yl)methyl)piperidin-4-yl)ethyl)imidazolidin-2-one • 1-(2-(1-((2,3-dihydrobenzo[b][1,4]dioxin-2-yl)methyl)piperidin-4-yl)ethyl)-3-(pyridin-4-yl)imidazolidin-2-one • 3-(2-(1-((2,3-dihydrobenzo[b][1,4]dioxin-2-yl)methyl)piperidin-4-yl)ethyl)-1-phenylimidazolidine-2,4-dione • (S)—N-(2-(1-((2,3-dihydrobenzo[b][1,4]dioxin-2-yl)methyl)piperidin-4-yl)ethyl)-[1,1′-biphenyl]-4-carboxamide • (S)—N-(2-(1-((2,3-dihydrobenzo[b][1,4]dioxin-2-yl)methyl)piperidin-4-yl)ethyl)-4-(1H-pyrrol-1-yl)benzamide • (S)—N-(2-(1-((2,3-dihydrobenzo[b][1,4]dioxin-2-yl)methyl)piperidin-4-yl)ethyl)-4-(pyridin-4-yl)benzamide • (S)—N-(2-(1-((2,3-dihydrobenzo[b][1,4]dioxin-2-yl)methyl)piperidin-4-yl)ethyl)-4-(pyridin-3-yl)benzamide • (S)—N-(2-(1-((2,3-dihydrobenzo[b][1,4]dioxin-2-yl)methyl)piperidin-4-yl)ethyl)-9-oxo-9H-fluorene-1-carboxamide.
as §1

[7] = tested on: MK-801-induced hyperactivity; test: MK-801-induced hyperactivity test in mice; format: in vivo; settings: Mus musculus

T6 sequence (P14416 1-414 isoform P14416-2): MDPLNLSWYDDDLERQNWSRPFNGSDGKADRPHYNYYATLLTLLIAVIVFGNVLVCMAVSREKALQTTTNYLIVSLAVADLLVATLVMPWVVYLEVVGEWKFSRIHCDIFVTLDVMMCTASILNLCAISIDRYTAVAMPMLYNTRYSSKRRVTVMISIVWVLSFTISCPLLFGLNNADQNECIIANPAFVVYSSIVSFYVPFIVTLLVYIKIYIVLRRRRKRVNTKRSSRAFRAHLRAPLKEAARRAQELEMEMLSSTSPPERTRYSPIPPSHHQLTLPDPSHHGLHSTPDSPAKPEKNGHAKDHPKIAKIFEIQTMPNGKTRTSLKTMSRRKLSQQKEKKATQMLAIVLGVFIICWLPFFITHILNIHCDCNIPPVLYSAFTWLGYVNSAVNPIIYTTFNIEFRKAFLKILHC
T2 sequence (P35462 whole entry): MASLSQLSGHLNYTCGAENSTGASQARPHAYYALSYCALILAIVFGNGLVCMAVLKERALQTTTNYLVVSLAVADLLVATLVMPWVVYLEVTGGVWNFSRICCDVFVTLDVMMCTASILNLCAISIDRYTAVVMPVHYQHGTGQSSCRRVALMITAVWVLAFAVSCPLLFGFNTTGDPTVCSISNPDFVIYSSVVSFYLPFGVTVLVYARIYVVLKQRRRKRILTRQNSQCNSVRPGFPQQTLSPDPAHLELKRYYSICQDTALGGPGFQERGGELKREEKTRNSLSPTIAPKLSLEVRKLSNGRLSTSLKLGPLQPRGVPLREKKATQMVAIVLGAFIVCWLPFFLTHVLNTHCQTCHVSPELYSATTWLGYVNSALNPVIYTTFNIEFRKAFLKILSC
T1 sequence (P14416 whole entry): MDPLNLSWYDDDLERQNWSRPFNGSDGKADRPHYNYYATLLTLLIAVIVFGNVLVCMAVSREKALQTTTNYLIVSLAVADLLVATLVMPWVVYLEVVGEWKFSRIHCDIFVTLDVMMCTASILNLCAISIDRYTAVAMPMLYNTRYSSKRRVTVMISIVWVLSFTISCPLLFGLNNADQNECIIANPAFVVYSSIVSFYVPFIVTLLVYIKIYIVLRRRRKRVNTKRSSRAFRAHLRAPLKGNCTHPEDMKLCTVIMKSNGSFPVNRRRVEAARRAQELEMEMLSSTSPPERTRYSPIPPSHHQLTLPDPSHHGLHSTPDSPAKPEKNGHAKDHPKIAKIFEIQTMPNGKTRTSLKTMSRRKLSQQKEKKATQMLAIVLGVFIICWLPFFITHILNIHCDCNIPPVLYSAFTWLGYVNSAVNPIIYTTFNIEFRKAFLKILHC

Compound | Ki [1] | Ki [2] | Ki [3] | Ki [4] | Ki [5] | I.A.: Intrinsic activity on receptor D2 in vitro [6] | ED50 [7]
O=C1OCCN1CCC1CCN(C[C@H]2COc3ccc(F)cc3O2)CC1 [Example 7, (S)-3-(2-(1-((7-fluoro-2,3-dihydrobenzo[b][1,4]dioxin-2-yl)methyl)piperidin-4-yl)ethyl)oxazolidin-2-one] | 14.5 nM | 6.46 nM | 8.71 nM | 1.95 nM | 0.851 nM | 36 percentage of that of dopamine | 0.15 mg/kg
O=C1OC[C@@H](COc2ccccc2)N1CCC1CCN(C[C@H]2COc3ccc(Br)cc3O2)CC1 [Example 69, (R)-3-(2-(1-(((S)-7-bromo-2,3-dihydrobenzo[b][1,4]dioxin-2-yl)methyl)piperidin-4-yl)ethyl)-4-(phenoxymethyl)oxazolidin-2-one] | 0.24 nM | 0.417 nM | 200 nM | 186 nM | 8.71 nM | 13 percentage of that of dopamine | 0.6 mg/kg
O=C1OC[C@H](Cc2ccccc2)N1CCC1CCN(C[C@H]2COc3cc(O)ccc3O2)CC1 [Example 36] | 2.14 nM | 1.29 nM | 6.03 nM | 1.17 nM | 0.562 nM | – | 3.4 mg/kg
O=C1OC[C@H](Cc2ccccc2)N1CCC1CCN(C[C@H]2COc3ccc(OC(F)(F)F)cc3O2)CC1 [Example 32, (S)-4-benzyl-3-(2-(1-(((S)-7-(trifluoromethoxy)-2,3-dihydrobenzo[b][1,4]dioxin-2-yl)methyl)piperidin-4-yl)ethyl)oxazolidin-2-one] | 1.26 nM | 0.355 nM | 15.1 nM | 18.2 nM | 6.61 nM | – | 2.4 mg/kg
O=C1OC[C@@H](CO)N1CCC1CCN(C[C@H]2COc3c(Cl)cc(F)cc3O2)CC1 [Example 63, (R)-3-(2-(1-(((S)-5-chloro-7-fluoro-2,3-dihydrobenzo[b][1,4]dioxin-2-yl)methyl)piperidin-4-yl)ethyl)-4-(hydroxymethyl)oxazolidin-2-one] | 3.09 nM | 1.32 nM | 53.7 nM | 8.32 nM | 2.69 nM | 5 percentage of that of dopamine | 0.2 mg/kg

Further lines, with some results ahead:

Ki [1] | Ki [2] | Ki [3] | Ki [4] | Ki [5] | I.A.: Intrinsic activity on receptor D2 in vitro [6] | Compound | ED50 [7]
0.955 nM | 0.603 nM | 7.08 nM | 2.57 nM | 0.955 nM | 16 percentage of that of dopamine | O=C1OCCN1CCC1CCN(C[C@H]2COc3c(Cl)cc(F)cc3O2)CC1 [Example 13, (S)-3-(2-(1-((5-chloro-7-fluoro-2,3-dihydrobenzo[b][1,4]dioxin-2-yl)methyl)piperidin-4-yl)ethyl)oxazolidin-2-one] | 0.04 mg/kg
15.1 nM | 3.31 nM | 4.9 nM | 1.55 nM | 0.437 nM | 24 percentage of that of dopamine | O=C1COCCN1CCC1CCN(C[C@H]2COc3c(F)cc(F)cc3O2)CC1 [Example 91, (S)-4-(2-(1-((5,7-difluoro-2,3-dihydrobenzo[b][1,4]dioxin-2-yl)methyl)piperidin-4-yl)ethyl)morpholin-3-one] | 0.7 mg/kg
19.1 nM | 1.23 nM | 57.5 nM | 81.3 nM | 6.76 nM | – | N#Cc1ccc2c(c1)O[C@@H](CN1CCC(CCN3CCOCC3=O)CC1)CO2 [Example 85, (S)-3-((4-(2-(3-oxomorpholino)ethyl)piperidin-1-yl)methyl)-2,3-dihydrobenzo[b][1,4]dioxine-6-carbonitrile] | 0.5 mg/kg
1.66 nM | 0.347 nM | 5.37 nM | 4.47 nM | 0.617 nM | 0 percentage of that of dopamine | O=C1COCCN1CCC1CCN(C[C@H]2COc3c(F)cc(Cl)cc3O2)CC1 [Example 94, (S)-4-(2-(1-((7-chloro-5-fluoro-2,3-dihydrobenzo[b][1,4]dioxin-2-yl)methyl)piperidin-4-yl)ethyl)morpholin-3-one] | 0.19 mg/kg
1.58 nM | 0.347 nM | 30.9 nM | 10.5 nM | 1.62 nM | 0 percentage of that of dopamine | O=C1OC[C@@H](CO)N1CCC1CCN(C[C@H]2COc3c(F)cc(Cl)cc3O2)CC1 [Example 62, (R)-3-(2-(1-(((S)-7-chloro-5-fluoro-2,3-dihydrobenzo[b][1,4]dioxin-2-yl)methyl)piperidin-4-yl)ethyl)-4-(hydroxymethyl)oxazolidin-2-one] | 2.1 mg/kg
4.57 nM | 1.55 nM | 4.57 nM | 0.813 nM | 0.537 nM | 6 percentage of that of dopamine | O=C1OCCN1CCC1CCN(C[C@H]2COc3c(F)cc(F)cc3O2)CC1 [Example 10, (S)-3-(2-(1-((5,7-difluoro-2,3-dihydrobenzo[b][1,4]dioxin-2-yl)methyl)piperidin-4-yl)ethyl)oxazolidin-2-one] | 0.13 mg/kg
